According to patent US10428083B2, “Heterocyclylmethyl-thienouracile as antagonists of the adenosine-A2B-receptor” (BAYER PHARMA AKTIENGESELLSCHAFT, priority 2015, dated 2019):

How the values were obtained:
[1] = biological target: human adenosine A1 receptor (Homo sapiens (Human), UniProt P30542); test: Adenosine receptor radioligand binding assay, A1 ([3H]-DPCPX, CHO membranes); details: radioligand [3H]-DPCPX, CHO membrane preparation; Cheng-Prusoff
Method: (§1) B-2. Adenosine Receptor Binding Assays
(§2) The binding properties of the test compounds on adenosine receptors were determined in binding studies with radioligands. For this purpose, membrane preparations of the human adenosine receptor subtypes were produced from cell lines having recombinant receptor expression (CHO cells for the A1 receptor, HEK293 cells for the A2a, A2b and A3 receptors). The following radioligands were used in the experiments: [^3H]-DPCPX for the A1 receptor, [^3H]-CGS 21680 for the A2a receptor, [^3H]-CPX for the A2b receptor and [^125I]-AB-MECA for the A3 receptor. The test substances were each tested in 8 different concentrations and 2 repeat tests per concentration. The displacement of the particular radioligand by the test compound was expressed as percentage inhibition of the specific binding of the controls. The IC50 values (concentration which brings about half-maximum inhibition of the specific binding of the controls) and the Hill coefficients (nH) were determined by a non-linear regression analysis, using the competition curves obtained from the mean values of the repeat tests and conducting a curve fit according to the Hill equation: Y=D+[A−D/1+(C/C50)^nH] (Y=specific binding; A=left-hand asymptote of the curve; D=right-hand asymptote of the curve; C=substance concentration; C50=IC50; nH=rise factor).
(§3) The inhibition constant (Ki) was calculated by the Cheng-Prusoff equation: Ki=IC50/(1+L/KD) (L=concentration of the radioligand in the assay; KD=receptor affinity of the radioligand for the receptor, determined with a Scatchard plot). [Literature: A1 receptor: Townsend-Nicholson, A. and Schofield, P. R., J. Biol. Chem. 269: 2373-2376 (1994); A2a receptor: Luthin, D. R. et al., Mol. Pharmacol. 47: 307-313 (1995); A2b receptor: Stehle, J. H. et al., Mol. Endocrinol. 6: 384-393 (1992) and Linden et al., Mol. Pharmacol. 56: 705-713 (1999); A3 receptor: Salvatore, C. A. et al., Proc. Natl. Acad. Sci. U.S.A. 90: 10365-10369 (1993) and Jacobson, K. A. et al., Neuropharmacology 36: 1157-1165 (1997)].
(§4) Table 2 below lists the Ki values thus determined from these binding assays for representative working examples: […]

[2] = biological target: T1, human adenosine A2b receptor (Homo sapiens (Human), UniProt P29275); test: Cellular in vitro reporter gene test for A2b receptor activity (CHO-K1, CRE-luciferase, NECA stimulation); type: cell-based; details: recombinant CHO-K1 cell line, CRE-luciferase reporter, antagonism of EC50 concentration of NECA; in some cases means of several determinations, rounded to two significant figures; read-out: A2b receptor IC50
T1 sequence (P29275 whole entry): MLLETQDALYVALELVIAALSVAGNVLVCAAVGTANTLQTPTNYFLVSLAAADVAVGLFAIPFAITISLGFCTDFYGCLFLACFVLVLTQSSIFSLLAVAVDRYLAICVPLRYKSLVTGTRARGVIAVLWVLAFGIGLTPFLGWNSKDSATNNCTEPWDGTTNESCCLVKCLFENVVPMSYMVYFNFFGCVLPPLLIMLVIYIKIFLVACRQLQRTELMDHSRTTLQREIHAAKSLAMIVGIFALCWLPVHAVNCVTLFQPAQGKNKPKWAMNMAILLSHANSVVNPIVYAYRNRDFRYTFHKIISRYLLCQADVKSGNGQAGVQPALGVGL
In short: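 CHO-K1 cells with CRE-driven luciferase; antagonists co-incubated with NECA at its EC50, determined in a pre-experiment on each test day. Luciferase read by luminescence 3 h after NECA addition.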

[3] = biological target: human adenosine A2a receptor (Homo sapiens (Human), UniProt P29274); test: Adenosine receptor radioligand binding assay, A2a ([3H]-CGS 21680, HEK293 membranes); details: radioligand [3H]-CGS 21680, HEK293 membrane preparation; Cheng-Prusoff
Chain of human adenosine A2a receptor (P29274 whole entry): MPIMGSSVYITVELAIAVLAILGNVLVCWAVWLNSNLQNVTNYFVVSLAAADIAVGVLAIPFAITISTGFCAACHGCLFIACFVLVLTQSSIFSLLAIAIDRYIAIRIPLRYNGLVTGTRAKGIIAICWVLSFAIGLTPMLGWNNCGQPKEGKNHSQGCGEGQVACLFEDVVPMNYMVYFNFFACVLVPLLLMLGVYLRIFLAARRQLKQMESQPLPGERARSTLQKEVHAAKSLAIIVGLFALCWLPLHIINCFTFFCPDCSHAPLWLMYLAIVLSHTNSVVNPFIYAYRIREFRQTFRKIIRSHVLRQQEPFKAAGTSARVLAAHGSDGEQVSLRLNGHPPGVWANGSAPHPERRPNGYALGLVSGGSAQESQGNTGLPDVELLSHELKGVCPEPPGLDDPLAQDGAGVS
Method: as §1, §2, §3, §4

[4] = biological target: T1, human adenosine A2b receptor; test: Adenosine receptor radioligand binding assay, A2b ([3H]-CPX, HEK293 membranes); details: radioligand [3H]-CPX, HEK293 membrane preparation; Cheng-Prusoff
Method: as §1, §2, §3, §4

[5] = biological target: human adenosine A3 receptor (Homo sapiens (Human), UniProt P0DMS8); test: Adenosine receptor radioligand binding assay, A3 ([125I]-AB-MECA, HEK293 membranes); details: radioligand [125I]-AB-MECA, HEK293 membrane preparation; Cheng-Prusoff
Chain of human adenosine A3 receptor (P0DMS8 whole entry): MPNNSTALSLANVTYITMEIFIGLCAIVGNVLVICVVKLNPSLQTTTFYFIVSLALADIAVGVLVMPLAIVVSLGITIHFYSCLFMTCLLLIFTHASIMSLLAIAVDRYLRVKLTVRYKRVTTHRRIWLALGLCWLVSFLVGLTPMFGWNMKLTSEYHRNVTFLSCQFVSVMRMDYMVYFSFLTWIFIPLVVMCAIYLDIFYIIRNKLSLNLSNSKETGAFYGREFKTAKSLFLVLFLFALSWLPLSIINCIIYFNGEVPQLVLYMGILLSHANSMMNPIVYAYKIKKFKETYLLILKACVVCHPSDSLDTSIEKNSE
Method: as §1, §2, §3, §4

melanoma animal models = details: cited from earlier work
[6] = tested on: prostate cancer cell lines; details: A2b receptor antagonist; cited from earlier work
[7] = tested on: bladder tumours and breast tumours; details: bladder and breast tumour animal models; cited from earlier work
[8] = tested on: IL-6 release by human fibroblast cell line LL29; test: NECA-induced IL-6 release by LL29 fibroblasts (ELISA); type: cell-based; details: LL29 cells, NECA 10 μM, 24 hours incubation, IL-6 in supernatant by ELISA
Method: B-3. Measurement of NECA-Induced IL-6 Release by LL29 Fibroblasts
Stimulation of fibroblasts with adenosine or the adenosine analog 5′-N-ethylcarboxamidoadenosine (NECA) leads to release of the pro-inflammatory and pro-fibrotic cytokine IL-6 which can be prevented by inhibition of the A2b receptor.
Accordingly, confluent cells of the human fibroblast cell line LL29 were treated with the test substances and stimulated with NECA (10 μM). After an incubation time of 24 hours, the cell supernatant is removed and human IL-6 in the cell supernatant is determined by ELISA (Quantikine® IL6 ELISA, R&D Systems, Minneapolis, USA).
Table 3 below lists the IC50 values obtained in this way for inhibition of IL-6 release for some working examples: […]

human fibroblasts = details: stimulation with adenosine analogue; increased by hypoxia; cited from earlier work
[9] = tested on: human pulmonary arterial endothelial and smooth muscle cells; details: stimulation with adenosine analogue; cited from earlier work
colon cancer cell lines = details: A2b receptor antagonist; cited from earlier work

Chain of human adenosine A1 receptor (P30542 whole entry): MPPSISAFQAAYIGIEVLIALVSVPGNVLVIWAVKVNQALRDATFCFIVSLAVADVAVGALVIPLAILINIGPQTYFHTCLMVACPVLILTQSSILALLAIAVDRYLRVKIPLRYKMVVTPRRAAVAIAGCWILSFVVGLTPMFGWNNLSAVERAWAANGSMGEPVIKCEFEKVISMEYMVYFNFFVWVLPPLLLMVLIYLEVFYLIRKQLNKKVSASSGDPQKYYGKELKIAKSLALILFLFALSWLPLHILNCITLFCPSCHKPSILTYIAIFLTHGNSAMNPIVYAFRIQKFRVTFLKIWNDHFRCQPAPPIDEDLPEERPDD

| Ki [1] [nM] | IC50 [2] [nM] | Ki [3] [nM] | Ki [4] [nM] | SMILES | also measured |
| --- | --- | --- | --- | --- | --- |
| 590 | 4.2 | 100 | 2.8 | CCn1c(=O)c2c(C)c(Cn3cc[nH]c3=O)sc2n(CCOC)c1=O [Example 109, 3-Ethyl-1-(2-methoxyethyl)-5-methyl-6-[(2-oxo-2,3-dihydro-1H-imidazol-1-yl)methyl]thieno[2,3-d]pyrimidine-2,4(1H,3H)-dione] | Ki [5]: 14000 nM |
| 950 | 4.3 | 280 | 5.2 | CCn1c(=O)c2c(C)c(CN3CCNC3=O)sc2n(CC2CCO2)c1=O (single isomer, unassigned; enantiomer 1) [Example 66, 3-Ethyl-5-methyl-1-(oxetan-2-ylmethyl)-6-[(2-oxoimidazolidin-1-yl)methyl]thieno[2,3-d]pyrimidine-2,4(1H,3H)-dione (Enantiomer 1)] | Ki [5]: 6800 nM |
|  |  |  |  | CCCn1c(=O)[nH]c2nc(-c3ccc(S(=O)(=O)N4CCN(c5ccc(Cl)cc5)CC4)cc3)[nH]c2c1=O [PSB603] | tumour growth and metastasis (melanoma animal models): reduction in tumour growth and metastasis; growth of several prostate cancer cell lines [6]: reduces the growth |
| 3300 | 24 | 790 | 12 | CCn1c(=O)c2c(C)c(Cn3cn[nH]c3=O)sc2n(CCC(F)(F)F)c1=O [Example 116, 3-Ethyl-5-methyl-6-[(5-oxo-1,5-dihydro-4H-1,2,4-triazol-4-yl)methyl]-1-(3,3,3-trifluoropropyl)thieno[2,3-d]pyrimidine-2,4(1H,3H)-dione] | Ki [5]: 330 nM |
| 1100 | 6.4 | 270 | 2.7 | COCCn1c(=O)n(C(C)C)c(=O)c2c(C)c(CN3CCNC3=O)sc21 [Example 86, 3-Isopropyl-1-(2-methoxyethyl)-5-methyl-6-[(2-oxoimidazolidin-1-yl)methyl]thieno[2,3-d]pyrimidine-2,4(1H,3H)-dione] | Ki [5]: 160000 nM |
|  |  |  |  | CCCn1c(=O)n(C2CC2)c(=O)c2[nH]c(-c3ccc(N(CC)C(=O)c4cccnc4)nc3)nc21 [ATL801] | metastasis [7]: distinct reduction in metastasis; tumour growth [7]: slowing of tumour growth |
|  | 4.4 |  |  | COCCn1c(=O)n(CCc2ccccc2)c(=O)c2c(C)c(CN3CCCC3=O)sc21 [Example 3, 1-(2-Methoxyethyl)-5-methyl-6-[(2-oxopyrrolidin-1-yl)methyl]-3-(2-phenylethyl)thieno[2,3-d]pyrimidine-2,4(1H,3H)-dione] | IC50 [8]: 15 nM |
|  | 4.5 |  |  | COCCn1c(=O)n(CCc2ccccc2)c(=O)c2c(C)c(CN3CCN(C)C3=O)sc21 [Example 102, 1-(2-Methoxyethyl)-5-methyl-6-[(3-methyl-2-oxoimidazolidin-1-yl)methyl]-3-(2-phenylethyl)thieno[2,3-d]pyrimidine-2,4(1H,3H)-dione] | IC50 [8]: 5 nM |
|  |  |  |  | CCNC(=O)[C@H]1O[C@@H](n2cnc3c(N)ncnc32)[C@H](O)[C@@H]1O [NECA, 5′-(N-ethylcarboxamido)adenosine] | release of IL-6 (human fibroblasts): release of IL-6; release of ET-1 and IL-6 [9]: release of ET-1 and IL-6 |
|  | 3.6 |  |  | COCCn1c(=O)n(CCc2ccccc2)c(=O)c2c(C)c(CN3CCOC3=O)sc21 [Example 20, 1-(2-Methoxyethyl)-5-methyl-6-[(2-oxo-,3-oxazolidin-3-yl)methyl]-3-(2-phenylethyl)thieno[2,3-d]pyrimidine-2,4(1H,3H)-dione] | IC50 [8]: 5 nM |
| 1500 | 8.1 | 1700 | 6.4 | CCn1c(=O)c2c(C)c(Cn3nc[nH]c3=O)sc2n(CCC(F)(F)F)c1=O [Example 113, 3-Ethyl-5-methyl-6-[(5-oxo-4,5-dihydro-1H-1,2,4-triazol-1-yl)methyl]-1-(3,3,3-trifluoropropyl)thieno[2,3-d]pyrimidine-2,4(1H,3H)-dione] |  |
| 330 | 5.1 | 120 | 2.4 | CCn1c(=O)c2c(C)c(CN3CCNC3=O)sc2n(CCOC)c1=O [Example 59, 3-Ethyl-1-(2-methoxyethyl)-5-methyl-6-[(2-oxoimidazolidin-1-yl)methyl]thieno[2,3-d]pyrimidine-2,4(1H,3H)-dione] | Ki [5]: 11000 nM |
|  |  |  |  | CCCn1c(=O)c2[nH]c(-c3ccc(OCC(=O)Nc4ccc(C#N)cc4)cc3)nc2n(CCC)c1=O [MRS1754] | growth of colon cancer cell lines (colon cancer cell lines): reduced growth |
|  | 46 |  |  | CCn1c(=O)c2c(C)c(CN3CC(C)NC3=S)sc2n(CCOC)c1=O (racemic) [Example 303, 3-Ethyl-1-(2-methoxyethyl)-5-methyl-6-[(4-methyl-2-thioxoimidazolidin-1-yl)methyl]thieno[2,3-d]pyrimidine-2,4(1H,3H)-dione] |  |
|  | 12 |  |  | COCCn1c(=O)n(C(C)C(F)(F)F)c(=O)c2c(C)c(CN3CCNC3=O)sc21 (racemic) [Example 410, 1-(2-Methoxyethyl)-5-methyl-6-[(2-oxoimidazolidin-1-yl)methyl]-3-(1,1,1-trifluoropropan-2-yl)thieno[2,3-d]pyrimidine-2,4(1H,3H)-dione] |  |
|  | 25 |  |  | CCOCCn1c(=O)n(CC(C)C)c(=O)c2c(C)c(CN3CCNC3=O)sc21 [Example 193, 1-(2-Ethoxyethyl)-3-isobutyl-5-methyl-6-[(2-oxoimidazolidin-1-yl)methyl]thieno[2,3-d]pyrimidine-2,4(1H,3H)-dione] |  |
|  | 87 |  |  | COCCn1c(=O)c2c(C)c(CN3CCNC3=NC(=O)OC)sc2n(CC2CCO2)c1=O (single isomer, unassigned) [Example 389, Methyl [1-{[3-(2-methoxyethyl)-5-methyl-1-(oxetan-2-ylmethyl)-2,4-dioxo-1,2,3,4-tetrahydrothieno[2,3-d]pyrimidin-6-yl]methyl}imidazolidin-2-ylidene]carbamate] |  |
|  | 110 |  |  | COCCn1c(=O)c2c(C)c(CN3CCNC3=NC#N)sc2n(CC2CCO2)c1=O (single isomer, unassigned) [Example 365, [1-{[3-Methoxyethyl-5-methyl-1-(oxetan-2-ylmethyl)-2,4-dioxo-1,2,3,4-tetrahydrothieno[2,3-d]pyrimidin-6-yl]methyl}imidazolidin-2-ylidene]cyanamide] |  |
